Assay results taken from article PMC9181852, “In Vivo and In Vitro Biological Evaluation and Molecular Docking Studies of Compounds Isolated from Micromeria biflora (Buch. Ham. ex D.Don) Benth” (Molecules, 2022).

Tests used:
Hot plate analgesic test = type: in vivo, mice (Balb/c)
Protocol: (§1) Healthy mice (Balb/c) with weight ranging from 20 to 22 g and ages 9 to 10 weeks were used in this screening model. The grown animals were provided with standard laboratory conditions such as standard food and water ad libitum. The in vivo biological screening test was performed at the Department of Veterinary Medicine, College of Agriculture and Veterinary Medicine, Qassim University Buraydah, Saudi Arabia, as well as Swabi University, KP, Pakistan, according to published procedures.
The analgesic effect of salicylalazine isolated from M. biflora was obtained with help of a hot plate according to the published method. The animals were distributed into different groups according to the previously reported method. A preliminary screening test was performed on the animals using a hot plate (Harvard apparatus) sustained at 55 ± 2 °C. […] Group I (positive control) was administered with the standard drug, while Group II (negative control) was administered with normal saline. The other groups of animals were administered with 2.5, 5, 10, 15, and 20 mg/kg (PO). […] To avoid tissue damage, a cut-off time of 30 s was used for every animal. The latency time was recorded for all groups (n = 6) at consistent intervals (30, 60, 90, and 120 min).

[1] = Inclined plane muscle relaxation model; type: in vivo, mice (Balb/c)
Protocol: as §1
An inclined plane screening procedure was adapted to identify the muscle relaxation effects of salicylalazine isolated from M. biflora according to a reported procedure. The inclined plane used in screening contained two plywood boards, and these boards were connected, where one board was at 60 0 from the base while the other one was aligned from the base. Various groups of animals were distributed into several groups; each group comprised six animals (n = 6). Animals in each group were administered water (10 mL/kg), standard drug (diazepam, 1 mg/kg), and salicylalazine at different doses of 2.5, 5, 10, 15, and 20 mg/kg, i.p. After various time intervals, such as 30, 60, and 90 min post-administration, animals were allowed on the higher part of the inclined plane for 30 s to drop or hang.

[2] = Traction muscle relaxation model; type: in vivo, mice (Balb/c)
Protocol: as §1
A traction screening model was adapted to identify the relaxation of muscle for salicylalazine isolated from M. biflora according to the standard method. The traction model was considered by using metallic wires covered with rubber, and then the wires were linked with each other using a stand around 60 cm upstairs of the lab bench. The animals were distributed into different groups, with each group comprising six animals (n = 6). The various groups of animals were administered water, diazepam, and salicylalazine at different doses. After administration, all groups of animals were subjected to traction screening after 30, 60, and 90 min. […] Traction testing was repeatedly performed to calculate the muscle relaxant ability of salicylalazine as per the reported method.

HepG2 = assay: Anticancer MTT assay, HepG2; type: cell-based; conditions: Homo sapiens, 24 h
Protocol: (§2) The MTT assay was used to assess the cytotoxicity of salicylalazine isolated from M. biflora as per the previously documented method. For the MTT assay, Gibco BRL was combined with 100 µg/mL of penicillin sodium salts, 10% FBS (Gibco), and sodium carbonate (2 mg/mL). The prepared medium was used to keep three human cancer cell lines: human hepatoma (HepG2), human A498, and renal NCI-h226 non-small cell lung). Mouse hepatocytes, including HepG2 and HepG-R, were planted in 96-well plates. The cell lines were preserved with salicylalazine (1.5–100 μM), hatched for 24 h, and then they were tracked using the MTT procedure^14. This method was used for all tested cell lines. The IC50 value of salicylalazine in different cell lines was calculated from the concentration-effect curves. The standard drug used in this experiment was paclitaxel.

A498 = assay: Anticancer MTT assay, A498; type: cell-based; conditions: Homo sapiens, 24 h
Protocol: as §2

mouse hepatocytes = assay: Cytotoxicity MTT assay, mouse hepatocytes; type: cell-based
Protocol: (§3) Salicylalazine isolated from M. biflora was also screened for in vitro cytotoxicity using mouse hepatocytes and LCMK-2 monkey kidney cells. According to the MTT assay, salicylalazine was incubated for 24 h and the viability of the cell was identified. In this screening test, the cells were kept in RPMI 1640 medium as per the reported method. The medium used in this experiment consisted of streptomycin sulfate, NaHCO3 solution, and penicillin sodium salt, and FBS in proper proportion. The initial seeding of 8.6 × 10^3 mice hepatocytes and 7.1 × 10^3 LCMK-2 cells was indicated in 96 well plates. The cells were preserved with salicylalazine at different concentrations, and vehicle (0.2% DMSO), and hatching was performed for […] by MTT following our previously reported method.

[3] = system: LCMK-2 monkey kidney cells; assay: Cytotoxicity MTT assay, LCMK-2 monkey kidney cells; type: cell-based
Protocol: as §3

Question: With `Oc1ccccc1/C=N/N=C/c1ccccc1O` [Salicylalazine, salicylalazine] as the molecule, how does the “Latency time on hot plate” value (Hot plate analgesic test; dose 2.5 mg/kg, 30 min) read?
Answer: 13.33 ± 0.55 s

Question: What about the “Latency time on hot plate” value (Hot plate analgesic test; dose 2.5 mg/kg, 60 min) of the same molecule?
Answer: 14.40 ± 0.83 s

Question: And the “Latency time on hot plate” value (Hot plate analgesic test; dose 2.5 mg/kg, 90 min)?
Answer: 14.33 ± 0.64 s

Question: What about the “Latency time on hot plate” value (Hot plate analgesic test; dose 2.5 mg/kg, 120 min) of the same molecule?
Answer: 14.01 ± 0.43 s

Question: And the “Latency time on hot plate” value (Hot plate analgesic test; dose 5 mg/kg, 30 min)?
Answer: 15.12 ± 0.80 s

Question: What about the “Latency time on hot plate” value (Hot plate analgesic test; dose 5 mg/kg, 60 min) of the same molecule?
Answer: 18.09 ± 0.69 s

Question: And the “Latency time on hot plate” value (Hot plate analgesic test; dose 5 mg/kg, 90 min)?
Answer: 18.03 ± 0.90 s

Question: And the “Latency time on hot plate” value (Hot plate analgesic test; dose 5 mg/kg, 120 min)?
Answer: 17.97 ± 1.00 s

Question: What about the “Latency time on hot plate” value (Hot plate analgesic test; dose 10 mg/kg, 30 min) of the same molecule?
Answer: 18.65 ± 0.95 s

Question: What about the “Latency time on hot plate” value (Hot plate analgesic test; dose 10 mg/kg, 60 min) of the same molecule?
Answer: 20.89 ± 0.90 s

Question: And the “Latency time on hot plate” value (Hot plate analgesic test; dose 10 mg/kg, 90 min)?
Answer: 20.77 ± 0.87 s

Question: And the “Latency time on hot plate” value (Hot plate analgesic test; dose 10 mg/kg, 120 min)?
Answer: 19.97 ± 0.80 s

Question: And the “Latency time on hot plate” value (Hot plate analgesic test; dose 15 mg/kg, 30 min)?
Answer: 21.43 ± 0.50 s

Question: What about the “Latency time on hot plate” value (Hot plate analgesic test; dose 15 mg/kg, 60 min) of the same molecule?
Answer: 22.89 ± 0.80 s

Question: What about the “Latency time on hot plate” value (Hot plate analgesic test; dose 15 mg/kg, 90 min) of the same molecule?
Answer: 22.00 ± 0.98 s

Question: What about the “Latency time on hot plate” value (Hot plate analgesic test; dose 15 mg/kg, 120 min) of the same molecule?
Answer: 21.65 ± 0.98 s

Question: And the “Latency time on hot plate” value (Hot plate analgesic test; dose 20 mg/kg, 30 min)?
Answer: 23.00 ± 0.44 s

Question: And the “Latency time on hot plate” value (Hot plate analgesic test; dose 20 mg/kg, 60 min)?
Answer: 23.90 ± 0.97 s

Question: And the “Latency time on hot plate” value (Hot plate analgesic test; dose 20 mg/kg, 90 min)?
Answer: 22.80 ± 1.05 s

Question: What about the “Latency time on hot plate” value (Hot plate analgesic test; dose 20 mg/kg, 120 min) of the same molecule?
Answer: 22.79 ± 1.09 s

Question: What about the “Inclined Plane Test (%)” value ([1]; dose 2.5 mg/kg i.p., 30 min) of the same molecule?
Answer: 20.11 ± 1.45%

Question: And the “Inclined Plane Test (%)” value ([1]; dose 2.5 mg/kg i.p., 60 min)?
Answer: 26.23 ± 1.66%

Question: And the “Inclined Plane Test (%)” value ([1]; dose 2.5 mg/kg i.p., 90 min)?
Answer: 27.45 ± 1.23%

Question: What about the “Inclined Plane Test (%)” value ([1]; dose 5 mg/kg i.p., 30 min) of the same molecule?
Answer: 27.34 ± 1.66%

Question: And the “Inclined Plane Test (%)” value ([1]; dose 5 mg/kg i.p., 60 min)?
Answer: 33.09 ± 1.60%

Question: What about the “Inclined Plane Test (%)” value ([1]; dose 5 mg/kg i.p., 90 min) of the same molecule?
Answer: 34.09 ± 1.30%

Question: What about the “Inclined Plane Test (%)” value ([1]; dose 10 mg/kg i.p., 30 min) of the same molecule?
Answer: 33.98 ± 1.40%

Question: What about the “Inclined Plane Test (%)” value ([1]; dose 10 mg/kg i.p., 60 min) of the same molecule?
Answer: 38.08 ± 1.55%

Question: What about the “Inclined Plane Test (%)” value ([1]; dose 10 mg/kg i.p., 90 min) of the same molecule?
Answer: 39.43 ± 1.28%

Question: And the “Inclined Plane Test (%)” value ([1]; dose 15 mg/kg i.p., 30 min)?
Answer: 44.53 ± 1.43%

Question: And the “Inclined Plane Test (%)” value ([1]; dose 15 mg/kg i.p., 60 min)?
Answer: 50.94 ± 1.50%

Question: What about the “Inclined Plane Test (%)” value ([1]; dose 15 mg/kg i.p., 90 min) of the same molecule?
Answer: 51.52 ± 1.20%

Question: And the “Inclined Plane Test (%)” value ([1]; dose 20 mg/kg i.p., 30 min)?
Answer: 52.09 ± 1.30%

Question: And the “Inclined Plane Test (%)” value ([1]; dose 20 mg/kg i.p., 60 min)?
Answer: 59.34 ± 1.45%

Question: And the “Inclined Plane Test (%)” value ([1]; dose 20 mg/kg i.p., 90 min)?
Answer: 60.88 ± 1.19%

Question: What about the “Traction Test (%)” value ([2]; dose 2.5 mg/kg, 30 min) of the same molecule?
Answer: 21.23 ± 1.55%

Question: And the “Traction Test (%)” value ([2]; dose 2.5 mg/kg, 60 min)?
Answer: 27.78 ± 2.10%

Question: What about the “Traction Test (%)” value ([2]; dose 2.5 mg/kg, 90 min) of the same molecule?
Answer: 28.65 ± 1.02%

Question: And the “Traction Test (%)” value ([2]; dose 5 mg/kg, 30 min)?
Answer: 28.12 ± 1.60%

Question: What about the “Traction Test (%)” value ([2]; dose 5 mg/kg, 60 min) of the same molecule?
Answer: 34.56 ± 2.07%

Question: What about the “Traction Test (%)” value ([2]; dose 5 mg/kg, 90 min) of the same molecule?
Answer: 35.34 ± 2.00%

Question: And the “Traction Test (%)” value ([2]; dose 10 mg/kg, 30 min)?
Answer: 34.99 ± 1.70%

Question: And the “Traction Test (%)” value ([2]; dose 10 mg/kg, 60 min)?
Answer: 39.45 ± 2.12%

Question: And the “Traction Test (%)” value ([2]; dose 10 mg/kg, 90 min)?
Answer: 40.66 ± 1.88%

Question: And the “Traction Test (%)” value ([2]; dose 15 mg/kg, 30 min)?
Answer: 45.78 ± 1.88%

Question: What about the “Traction Test (%)” value ([2]; dose 15 mg/kg, 60 min) of the same molecule?
Answer: 52.98 ± 2.15%

Question: And the “Traction Test (%)” value ([2]; dose 15 mg/kg, 90 min)?
Answer: 52.32 ± 2.04%

Question: And the “Traction Test (%)” value ([2]; dose 20 mg/kg, 30 min)?
Answer: 53.72 ± 1.89%

Question: What about the “Traction Test (%)” value ([2]; dose 20 mg/kg, 60 min) of the same molecule?
Answer: 60.56 ± 2.13%

Question: What about the “Traction Test (%)” value ([2]; dose 20 mg/kg, 90 min) of the same molecule?
Answer: 61.32 ± 2.06%

Question: What about the IC50 (HepG2) of the same molecule?
Answer: 20.8 ± 0.38 µM

Question: What about the IC50 (A498) of the same molecule?
Answer: 115.5 ± 0.42 µM

Question: What about the “In vitro cytotoxicity (MTT)” value (mouse hepatocytes) of the same molecule?
Answer: did not exhibit any considerable cytotoxicity

Question: What about the “In vitro cytotoxicity (MTT)” value [3] of the same molecule?
Answer: did not exhibit any considerable cytotoxicity
